Columns and labels:
[1] = biological target: T1, LaNR (Leucojum aestivum, UniProt Z9Z857OJM6); experiment: HPLC-MS/MS of norbelladine formed, with and without NADPH; format: biochemical; details: […] NADPH; […] tyramine, […],4-DHBA; […] sodium citrate pH […]; […] C; […] h
T1 construct: full-length 269 aa (29 kDa), N-terminal MBP fusion (pMAL-c2x), tag kept, E. coli Rosetta (DE3) pLysS

[2] = biological target: T2, NpNR (Narcissus papyraceus, UniProt A0A346TLF8); experiment: as above; format: biochemical; details: 1 mM NADPH; 10 uM tyramine, 300 uM 3,4-DHBA; 100 mM sodium citrate pH 6.0; 35 C; 2 h
T2 construct: gene NorRed1; full-length 269 aa (29 kDa), N-terminal MBP fusion (pMAL-c2x), tag kept, E. coli Rosetta (DE3) pLysS
T2 sequence (A0A346TLF8 1-269): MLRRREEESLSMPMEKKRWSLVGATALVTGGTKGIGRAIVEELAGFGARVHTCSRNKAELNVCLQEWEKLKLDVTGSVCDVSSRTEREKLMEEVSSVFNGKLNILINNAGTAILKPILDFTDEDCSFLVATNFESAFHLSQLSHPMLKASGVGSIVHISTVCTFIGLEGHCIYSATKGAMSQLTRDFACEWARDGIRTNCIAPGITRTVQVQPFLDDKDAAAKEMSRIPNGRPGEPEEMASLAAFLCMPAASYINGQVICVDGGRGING

[3] = biological target: N. papyraceus noroxomaritidine/norcraugsodine reductase, yeast two-hybrid fusions (Narcissus papyraceus)
Chain of N. papyraceus noroxomaritidine/norcraugsodine reductase, yeast two-hybrid fusions (Narcissus papyraceus) (A0A346TLF8 entry or part of it): as the sequence (A0A346TLF8 1-269) above

T1 sequence (Z9Z857OJM6 1-271): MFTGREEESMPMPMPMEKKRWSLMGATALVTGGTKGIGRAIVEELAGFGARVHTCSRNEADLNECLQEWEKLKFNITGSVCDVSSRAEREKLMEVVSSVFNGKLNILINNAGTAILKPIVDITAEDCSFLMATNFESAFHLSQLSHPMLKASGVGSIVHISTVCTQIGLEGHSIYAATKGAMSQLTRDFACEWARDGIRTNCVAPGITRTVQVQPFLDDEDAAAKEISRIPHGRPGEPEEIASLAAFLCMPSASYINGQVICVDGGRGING

Molecule	HPLC-MS/MS of norbelladine formed, with and without NADPH [1]	HPLC-MS/MS of norbelladine formed, with and without NADPH [2]	norbelladine produced by yeast cultures co-expressing NpNBS and NpNR, fed with tyramine and 3,4-DHBA (HPLC-MS/MS, peak area relative to papaverine); none detected with either enzyme alone (relative peak area ratio) [3]
NC(=O)C1=CN([C@@H]2O[C@H](COP(=O)(O)OP(=O)(O)OC[C@H]3O[C@@H](n4cnc5c(N)ncnc54)[C@H](OP(=O)(O)O)[C@@H]3O)[C@@H](O)[C@H]2O)C=CC1 [NADPH]	NR assays lacking NADPH resulted in no norbelladine production	NR assays lacking NADPH resulted in no norbelladine production	–
N. papyraceus norbelladine synthase, yeast two-hybrid fusions (enzyme)	–	–	0.22
